In the oligonucleotide strings, read from the 5' end, every base follows the letter of its sugar. An asterisk marks phosphorothioate; unmarked linkages are phosphodiester. Other units and linkages are bracketed, terminal groups are in braces. A string of capitals states the bases alone. d = 2'-deoxy (DNA)
Experiments:
rat CYP3A2 = test: Midazolam sleep time in rats; format: in vivo; settings: MZ 50 mg/kg i.p.
Experimental: Male Sprague-Dawley rats (Sasco, Omaha) weighing between 210 to 290 grams were used for all studies. The animals were exposed to 12 hour light/dark cycle and fed Purina rat chow and tap water ad libitum.
Sleep time was measured after i.p. injection of 50 mg/kg MZ (Hoffman-La Roche, Nutley, N.J.) at 0 (day 1), 24 (day 2) and […]. The volume of the injection was from 2.0 to 2.4 ml/rat. […] […] Control rats received saline only. Total volume injection was 0.1 ml in saline.

CYP3A2 = test: Erythromycin demethylation (ED) in liver microsomes; format: in vivo, rat
Experimental: Sleep time was measured after i.p. injection of 50 mg/kg MZ (Hoffman-La Roche, Nutley, N.J.) at 0 (day 1), 24 (day 2) and 48 h (day 4). The volume of the injection was from 2.0 to 2.4 ml/rat. […] The rats were treated with 0.25, 0.50 or 1.00 mg antisense ODN i.p. immediately after the animal had regained its righting reflex determined at 0 and 24 h. Control rats received saline only. Total volume injection was 0.1 ml in saline.
Microsomes were prepared, as described by Franklin and Estabrook (cited above) for determination of enzyme level and activity.
Erythromycin demethylation (ED) was used a measure of CYP3A2 enzymatic activity (Gonzalez, Pharmacol. Rev. 40:243-87, 1989). Activity was recorded as micromoles of formaldehyde per milligram of protein per minute.

Substance | MZ ST (midazolam sleep time) (rat CYP3A2; 1000 μg/day i.p.) [min] | ED (erythromycin demethylase activity) (CYP3A2; 1000 μg/day i.p.) [μmol HCOH/mg/min] | MZ ST (midazolam sleep time) (rat CYP3A2; 100 μg/day i.p.) [min] | ED (erythromycin demethylase activity) (CYP3A2; 100 μg/day i.p.) [μmol HCOH/mg/min]
ATGMYC/PS: PS DNA myc control, SEQ ID NO: 44, 5′-ACGTTGAGGGGCAUCGTCC-3′ (DNA, all phosphorothioate, T or U not given here) | 22.8 ± 1.3 | 113 | – | –
AUGM:YC/PMO: PMO myc control, SEQ ID NO: 44, 5′-ACGUUGAGGGGCAUCGUCC-3′ (all phosphorodiamidate morpholino (PMO), T or U not given here) | – | – | 20.6 ± 0.6 | 110
REV3A2/PMO: PMO reverse control, SEQ ID NO: 43, 5′-UACCUCGACGAAAGUCGAGAGU-3′ (all phosphorodiamidate morpholino (PMO), T or U not given here) | – | – | 20.3 ± 1.3 | 99
REV3A2/PS: PS DNA reverse control, SEQ ID NO: 43, 5′-TACCTCGACGAAAGTCGAGAGT-3′ (antisense dT*dA*dC*dC*dT*dC*dG*dA*dC*dG*dA*dA*dA*dG*dT*dC*dG*dA*dG*dA*dG*dT) | 22.4 ± 0.6 | 91 | – | –
